# Data published in US4542137A, “Alkylaminodesoxy-1.4;3.6-dianhydrohexitol nitrates substituted by purine bases and pharmaceutical compositions” (priority 1980, dated 1985).
# Tested on: mongrel dogs
# Assay: circulatory pharmacological effectiveness on narcotised dogs, intravenous
# Format: in vivo, dog
# Settings: dog i.v. ISDN/9c 1, 1d 0.5 mg/kg
compound,measurement,setting,value
"Cn1c(=O)c2c(ncn2CCCN[C@H]2CO[C@H]3[C@@H]2OC[C@@H]3O[N+](=O)[O-])n(C)c1=O [Example 1d, 5-(3-Theophyllin-7-ylpropyl)-amino-5-desoxy-1.4;3.6-dianhydro-L-iditol 2-nitrate]",APdiast: diastolic aorta pressure,2 min,67.5 mm.Hg
same,APsyst: systolic aorta pressure,2 min,107.8 mm.Hg
same,BFFem: blood flow in the A. femoralis referred to 20 kg body weight,2 min,42.6 mL/min
same,HF: heart frequency,2 min,145.7
same,"HLL: heart capacity left, referred to 20 kg body weight",2 min,0.51 W
same,"HLR: heart capacity right, referred to 20 kg body weight",2 min,70.9 mW
same,"HZV: heart minute volume, referred to 20 kg body weight",2 min,2.94 L/min
same,LVEDP: end diastolic pressure in the left ventricle,2 min,3.85 mm.Hg
same,"SV: beat volume, referred to 20 kg body weight",2 min,21.9 mL
same,"WAP: pulmonalis resistance, referred to 20 kg body weight",2 min,0.35 U
same,"WFem: moralis resistance, referred to 20 kg body weight",2 min,0.28 KU
same,"WTP: total peripheral resistance, referred to 20 kg body weight",2 min,3.73 U
same,dp/dt: rate of pressure increase in the left ventricle,2 min,2915.6 mm.Hg/sec
same,APdiast: diastolic aorta pressure,5 min,77.8 mm.Hg
same,APsyst: systolic aorta pressure,5 min,119.4 mm.Hg
same,BFFem: blood flow in the A. femoralis referred to 20 kg body weight,5 min,40.8 mL/min
same,HF: heart frequency,5 min,131.2
same,"HLL: heart capacity left, referred to 20 kg body weight",5 min,0.47 W
same,"HLR: heart capacity right, referred to 20 kg body weight",5 min,58.2 mW
same,"HZV: heart minute volume, referred to 20 kg body weight",5 min,2.40 L/min
same,LVEDP: end diastolic pressure in the left ventricle,5 min,4.78 mm.Hg
same,"SV: beat volume, referred to 20 kg body weight",5 min,19.6 mL
same,"WAP: pulmonalis resistance, referred to 20 kg body weight",5 min,0.38 U
same,"WFem: moralis resistance, referred to 20 kg body weight",5 min,0.32 KU
same,"WTP: total peripheral resistance, referred to 20 kg body weight",5 min,5.16 U
same,dp/dt: rate of pressure increase in the left ventricle,5 min,2671.9 mm.Hg/sec
same,APdiast: diastolic aorta pressure,7 min,75.9 mm.Hg
same,APsyst: systolic aorta pressure,7 min,122.8 mm.Hg
same,BFFem: blood flow in the A. femoralis referred to 20 kg body weight,7 min,42.7 mL/min
same,HF: heart frequency,7 min,119.5
same,"HLL: heart capacity left, referred to 20 kg body weight",7 min,0.47 W
same,"HLR: heart capacity right, referred to 20 kg body weight",7 min,56.8 mW
same,"HZV: heart minute volume, referred to 20 kg body weight",7 min,2.40 L/min
same,LVEDP: end diastolic pressure in the left ventricle,7 min,5.16 mm.Hg
same,"SV: beat volume, referred to 20 kg body weight",7 min,21.3 mL
same,"WAP: pulmonalis resistance, referred to 20 kg body weight",7 min,0.37 U
same,"WFem: moralis resistance, referred to 20 kg body weight",7 min,0.30 KU
same,"WTP: total peripheral resistance, referred to 20 kg body weight",7 min,5.10 U
same,dp/dt: rate of pressure increase in the left ventricle,7 min,2662.5 mm.Hg/sec
same,APdiast: diastolic aorta pressure,10 min,74.6 mm.Hg
same,APsyst: systolic aorta pressure,10 min,124.7 mm.Hg
same,BFFem: blood flow in the A. femoralis referred to 20 kg body weight,10 min,46.2 mL/min
same,HF: heart frequency,10 min,110.2
same,"HLL: heart capacity left, referred to 20 kg body weight",10 min,0.47 W
same,"HLR: heart capacity right, referred to 20 kg body weight",10 min,57.1 mW
same,"HZV: heart minute volume, referred to 20 kg body weight",10 min,2.38 L/min
same,LVEDP: end diastolic pressure in the left ventricle,10 min,4.69 mm.Hg
same,"SV: beat volume, referred to 20 kg body weight",10 min,22.9 mL
same,"WAP: pulmonalis resistance, referred to 20 kg body weight",10 min,0.41 U
same,"WFem: moralis resistance, referred to 20 kg body weight",10 min,0.28 KU
same,"WTP: total peripheral resistance, referred to 20 kg body weight",10 min,5.10 U
same,dp/dt: rate of pressure increase in the left ventricle,10 min,2465.6 mm.Hg/sec
same,APdiast: diastolic aorta pressure,15 min,75.9 mm.Hg
same,APsyst: systolic aorta pressure,15 min,126.0 mm.Hg
same,BFFem: blood flow in the A. femoralis referred to 20 kg body weight,15 min,48.3 mL/min
same,HF: heart frequency,15 min,107.7
same,"HLL: heart capacity left, referred to 20 kg body weight",15 min,0.44 W
same,"HLR: heart capacity right, referred to 20 kg body weight",15 min,53.8 mW
same,"HZV: heart minute volume, referred to 20 kg body weight",15 min,2.26 L/min
same,"SV: beat volume, referred to 20 kg body weight",15 min,22.0 mL
same,"WAP: pulmonalis resistance, referred to 20 kg body weight",15 min,0.43 U
same,"WFem: moralis resistance, referred to 20 kg body weight",15 min,0.28 KU
same,"WTP: total peripheral resistance, referred to 20 kg body weight",15 min,5.51 U
same,dp/dt: rate of pressure increase in the left ventricle,15 min,2465.6 mm.Hg/sec
same,APdiast: diastolic aorta pressure,20 min,78.7 mm.Hg
same,APsyst: systolic aorta pressure,20 min,127.9 mm.Hg
same,BFFem: blood flow in the A. femoralis referred to 20 kg body weight,20 min,51.5 mL/min
same,HF: heart frequency,20 min,104.0
same,"HLL: heart capacity left, referred to 20 kg body weight",20 min,0.45 W
same,"HLR: heart capacity right, referred to 20 kg body weight",20 min,52.8 mW
same,"HZV: heart minute volume, referred to 20 kg body weight",20 min,2.24 L/min
same,LVEDP: end diastolic pressure in the left ventricle,20 min,5.62 mm.Hg
same,"SV: beat volume, referred to 20 kg body weight",20 min,22.3 mL
same,"WAP: pulmonalis resistance, referred to 20 kg body weight",20 min,0.41 U
same,"WFem: moralis resistance, referred to 20 kg body weight",20 min,0.27 KU
same,"WTP: total peripheral resistance, referred to 20 kg body weight",20 min,5.71 U
same,dp/dt: rate of pressure increase in the left ventricle,20 min,2428.1 mm.Hg/sec
same,APdiast: diastolic aorta pressure,25 min,79.7 mm.Hg
same,APsyst: systolic aorta pressure,25 min,127.5 mm.Hg
same,BFFem: blood flow in the A. femoralis referred to 20 kg body weight,25 min,52.9 mL/min
same,"HLL: heart capacity left, referred to 20 kg body weight",25 min,0.45 W
same,"HLR: heart capacity right, referred to 20 kg body weight",25 min,50.9 mW
same,"HZV: heart minute volume, referred to 20 kg body weight",25 min,2.24 L/min
same,LVEDP: end diastolic pressure in the left ventricle,25 min,5.44 mm.Hg
same,"SV: beat volume, referred to 20 kg body weight",25 min,22.3 mL
same,"WAP: pulmonalis resistance, referred to 20 kg body weight",25 min,0.44 U
same,"WFem: moralis resistance, referred to 20 kg body weight",25 min,0.27 KU
same,"WTP: total peripheral resistance, referred to 20 kg body weight",25 min,5.78 U
same,dp/dt: rate of pressure increase in the left ventricle,25 min,2353.1 mm.Hg/sec
same,APdiast: diastolic aorta pressure,30 min,81.6 mm.Hg
same,APsyst: systolic aorta pressure,30 min,130.9 mm.Hg
same,BFFem: blood flow in the A. femoralis referred to 20 kg body weight,30 min,54.1 mL/min
same,HF: heart frequency,30 min,101.2
same,"HLL: heart capacity left, referred to 20 kg body weight",30 min,0.45 W
same,"HLR: heart capacity right, referred to 20 kg body weight",30 min,50.5 mW
same,"HZV: heart minute volume, referred to 20 kg body weight",30 min,2.18 L/min
same,LVEDP: end diastolic pressure in the left ventricle,30 min,5.72 mm.Hg
same,"SV: beat volume, referred to 20 kg body weight",30 min,22.1 mL
same,"WAP: pulmonalis resistance, referred to 20 kg body weight",30 min,0.45 U
same,"WFem: moralis resistance, referred to 20 kg body weight",30 min,0.26 KU
same,"WTP: total peripheral resistance, referred to 20 kg body weight",30 min,6.10 U
same,APdiast: diastolic aorta pressure,40 min,83.4 mm.Hg
same,APsyst: systolic aorta pressure,40 min,133.1 mm.Hg
